The values below are quoted from earlier work in patent publication US20170231974A1, “Combined Use of an Alpha-Adrenergic Receptor Antagonist and an Anti-Muscarinic Agent” (Astellas Ireland Co., Ltd., priority 2008, published 2017).

Counter-ions that a name gives are not always drawn.

The subject of this data set is male patients with lower urinary tract symptoms associated with prostatic hyperplasia.
The mark [1] stands for this setting: male patients, at least 1 urgency episode per day and 8 or more micturitions per day.

Turning to `CCCOC(C(=O)OC1CCN(C)CC1)(c1ccccc1)c1ccccc1` [Propiverine, propiverine hydrochloride], under “added to doxazosin”, the “acute urinary retention (AUR)” value is reported as “no acute urinary retention (AUR) was observed” and the “effect on urinary flow rate” value was “did not affect the urinary flow rate”.
Consider `COc1cc2nc(N3CCN(C(=O)C4COc5ccccc5O4)CC3)nc(N)c2cc1OC` (centres unmarked) [doxazosin], for which, under setting [1], the “improvement of storage symptom score” value is 2.9 points, the “improvement of total I-PSS” value was 7.3 points and the “improvement of voiding score” value is 4.5 points.
